Holding throughout (assay type): cell-based
In experiment [1] the test system is NF-κB p65. Nature of the experiment: qRT-PCR, NF-κB p65 mRNA. Conditions: DLD-1 cells; 5 μM. Here is the method: (§1) Total RNA from cells was isolated with the GeneMatrix Universal DNA/RNA/Protein Purification Kit (EurX, Poland). For the qRT-PCR analyses, the Maxima SYBR Green I/ROX qPCR Master Mix (2×) (Thermo Fisher Scientific, USA) and the thermal cycler LightCycler (Roche, Germany) were used. The protocol started with 5 min of enzyme activation at 95 °C, followed by 40–50 cycles at 95 °C for 15 s, 56 °C for 20 s, 72 °C for 40 s, and final elongation at 72 °C for 5 min. Melting curve analysis was used for amplicon verification. The expression levels of TATA-box-binding protein (TBP) and porphobilinogen deaminase (PBGD) were used to normalize the data. The Pfaffl comparative method was used to calculate fold change. Primers were designed using Beacon Designer software (the sequences of primers used to analyze genes are listed in Table 2 of the supplementary materials).
(In general: Real-time PCR tracks product formation cycle by cycle.)

The subject of another experiment is p-Nrf2. Nature of the experiment: Western blot, p-Nrf2 protein in nuclear fraction. To be noted: HCT116 line; 5 μM. How it is done:
(§2) Cytosolic and nuclear extracts were prepared using a Nuclear/Cytosol Fractionation Kit (BioVision Research, USA). Cytosolic extracts (for NF-κBp65, NF-κBp50, COX-2, iNOS, STAT3, c-Myc, Bcl-xl, Nrf2, SOD, GSTP, EGFR, Akt, p-Akt, Keap1, IKKα/β and β-actin) or nuclear extracts (for NF-κBp65, NF-κBp50, STAT3, p-STAT3, Nrf2, p-Nrf2 and lamin) were separated on 7.5%, 10% or 12% SDS–PAGE slab gels. Then, the proteins were transferred to a nitrocellulose Immobilon-P membrane. After blocking for 2 h with 10% skimmed milk, proteins were incubated with primary antibodies against NF-κBp65, NF-κBp50, COX-2, iNOS, STAT3, p-STAT3, c-Myc, Bcl-xl, Nrf2, p-Nrf2, SOD, GSTP, EGFR, Akt, p-Akt, Keap1, IKKα/β, β-actin, and lamin. Alkaline phosphatase (AP)-labeled anti-rabbit IgG, anti-goat IgG, and anti-mouse IgG secondary antibodies (Bio-Rad Laboratories, USA), as well as horseradish peroxidase (HRP)-conjugated anti-mouse IgG (Boster Bio, USA) secondary antibodies were used in the staining reaction. Bands were visualized by the AP Conjugate Substrate Kit NBT/BCIP or the chemiluminescent HRP substrate of the Clarity ECL Kit (Bio–Rad Laboratories, USA). The amount of immunoreactive product in each lane was determined using a ChemiDoc Imaging System (Bio–Rad Laboratories, USA). Values were calculated as relative absorbance units (RQ) per mg of protein and expressed as a percentage of the control.
For orientation: In western blotting, separated proteins are transferred to a membrane and probed.

A further experiment concerns Nrf2. Nature of the experiment: qRT-PCR, Nrf2 mRNA. To be noted: 5 at 5 μM. How it is done: as §1
Another experiment relates to SOD. Nature of the experiment: SOD expression (qRT-PCR mRNA, Western blot protein). To be noted: HCT116 cells; 5 μM. Here is the method: as §2
as §1, with “Primers were designed using Beacon Designer software (the sequences of primers used to analyze genes are listed in Table 2 of the supplementary materials).” left out

Experiment [2] concerns DLD-1 cells. Nature of the experiment: Cell cycle distribution, PI staining, flow cytometry, DLD-1. To be noted: 48 h, BAY 11-7082 5 µM, 5 in higher (doubled) concentration. How it is done:
The analysis of the cell cycle distribution was performed by propidium iodide (PI) staining. The addition of RNase A improved the specificity of PI binding to DNA. The Muse Cell Cycle Kit (Luminex, USA) and flow cytometric detection were performed with the Muse Cell Analyzer (Merck, Germany), according to the manufacturer’s protocol. Briefly, cells were seeded (2 × 10^5 cells per well) in 6-well plates and on the following day the analyzed compounds were added. Topotecan (Sigma-Aldrich, USA) was used as a positive control of cell cycle arrest. After 48 h cells were collected by trypsinization, fixed in cold 70% ethanol and stored at –20 °C. Then, fixed cells were collected and stained with PI, subjected to 30 min incubation at room temperature in the dark and analyzed by flow cytometry. Three independent experiments were performed. Data were analyzed by Muse 1.5 Analysis Software (Merck, Germany).

The test system of experiment [3] is NF-κB p65. Nature of the experiment: Western blot, NF-κB p65 protein level. Conditions: 4 at 1 μM, vs control. Here is the method:
as §2

The test system of the next experiment is IKKα/β. Nature of the experiment: Western blot, IKKα/β protein in cytosolic fraction. Conditions: HCT116 cells; 4 at 1 μM. How it is done: as §2
Experiment [4] relates to NF-κB p65. Nature of the experiment: Transcription factor ELISA, NF-κB p65 binding to DNA. Conditions: DLD-1 cells (context); 1, 4 at 1 μM; 2, 8 at 5 μM; vs control. How it is done:
To estimate NF-ΚB (p50 and p65 subunits) STAT3 and Nrf2 activation, enzymatic immunoassays with the Transcription Factor ELISA Kit (TransAM™NF-κB, TransAM™STAT3/TransAM™Nrf2, Active Motif, Carlsbad CA, USA) were used following the manufacturer’s protocol. Briefly, proper consensus-site double-strand oligonucleotides (NF-κB—5′-GGGACTTTCC-3′; STAT3-5’—TTCCCGGAA-3’; Nrf2-5ʹ—[…]-3ʹ) were immobilized on an ELISA plate and incubated for one hour with the nuclear extracts. The activated subunits bound to DNA were recognized with a specific primary antibody and detected with an HRP-conjugated secondary antibody. The number of subunits was determined by spectrophotometry at λ = 450 nm. The number of p50, and p65 subunits, STAT3, as well as the amount of Nrf2 contained in the DNA-binding complex, corresponded to the activated NF-κB, STAT3, or Nrf2 transcription factors.

A further experiment relates to COX-2. Nature of the experiment: COX-2 expression (qRT-PCR mRNA, Western blot protein). Conditions: 4 at 1 μM. How it is done: as §2, §1
The subject of the next experiment is STAT3. Nature of the experiment: Western blot, STAT3 protein level. To be noted: 4 at 1 μM. Here is the method:
as §2

The subject of experiment [5] is DLD-1 cells. Nature of the experiment: Wound healing assay (cell migration). To be noted: 24 h, 4 at standard concentration (1 μM), BAY 11-7082 5 µM. Here is the method:
Cell migration was assessed by the wound healing assay. DLD-1 cells were seeded into 24-well plates (5 × 10^5 cells per well) and were grown overnight to reach confluency. A scratch was performed using a 10 μl tip, wells were rinsed twice with PBS buffer to remove detached cells, and fresh medium with reduced FBS concentration (0.5%) containing the tested compounds was added. Subsequently, representative microscopic photographs of scratch areas were taken by JuLI FL microscope (NanoEntek, South Korea) direct after the addition of compounds and after 24 h. Area covered by cells (%) was assessed using JuLI FL software and the difference in the coverage of the growth area by DLD-1 cells between 0 and 24 h time points was calculated for each well. The experiment was repeated three times. The relative effect of the tested compounds on cell migration was calculated by comparing the difference in cell coverage area between compound-treated cells and DMSO-vehicle control (tested compound [area 24 h − area 0 h] / DMSO-vehicle control [area 24 h − area 0 h]).

Here are results for 2 molecules from PMC9436958, “The synthesis of novel thioderivative chalcones and their influence on NF-κB, STAT3 and NRF2 signaling pathways in colorectal cancer cells” (Scientific Reports, 2022).

Structures are written as SMILES.

On to `COc1cc(/C=C/C(=O)c2cc(Br)c(SC)c(OC)c2)ccc1SC` [chalcone 5], for which the “inhibitory effect on p65 subunit transcription” value in the experiment with NF-κB p65 [1] is on record as “most potent inhibitory effect”. Also, the “increase in the nuclear level of p-Nrf2” value in the experiment on p-Nrf2 was determined as 85%. Also, the “increase in Nrf2 transcription” value in the experiment on Nrf2 (DLD-1 line) is 77%; in the experiment with Nrf2 (HCT116 line), 45%. Also, the “levels of SOD mRNA and protein” value in the experiment on SOD is “increased levels of SOD mRNA and protein”. Also, the “cell cycle distribution (in words)” value in the experiment with DLD-1 cells [2] is on record as “slightly enriching S phase”.
In the case of `COc1cc(C(=O)/C=C/c2cccc(SC)c2)cc(Br)c1OC` [chalcone 4], the “decrease of p65 level in the nuclear fraction” value is recorded as 22% with NF-κB p65 [3] (DLD-1 cells) and 26% with NF-κB p65 [3] (HCT116 cells). Besides, the “IKKα/β, cytosolic fraction” value in the experiment with IKKα/β is given as “inactivation”. In addition, the “reduction of the binding of the p65 subunit to DNA” value with NF-κB p65 [4] was 21%. Further, the COX-2 protein level result with COX-2 (DLD-1 cells, cytosolic fraction) is listed as “reduced COX-2 protein levels”. For the same molecule, the COX-2 transcription result in the experiment on COX-2 (DLD-1 cells, 3, 6 at 5 μM) is reported as “statistically significant reduction”. The “COX-2 expression, protein level” value with COX-2 (HCT116 cells, 2 at 5 μM) is reported as “reduction of COX-2 expression”. In the experiment on COX-2 (HCT116 cells, 2 at 5 μM), the “COX-2 expression, transcript level” value was “reduction of COX-2 expression”. The “decrease in the nuclear level of STAT3 protein” value in the experiment on STAT3 (DLD-1 cells, 2 at 5 μM) is on record as 21%; with STAT3 (HCT116 cells), 22%. Moreover, in the experiment with DLD-1 cells [5], the “reduction of cell migration rate (wound healing) vs DMSO-treated cells” value was “approximately 15%”.
